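48-hour exposure; five concentrations; linearly interpolated endpoints. GI50: concentration for 50% inhibition of growth.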 Active and inactive are the calls of the source. Rule as the data show it: active = GI50 up to about 1.1 µM and inactive = higher.
Columns and labels:
Test in all cases: DTP human tumour cell line panel, 48 h
[1] = test system: DMS-114
[2] = test system: DMS-273
[3] = test system: HOP-18
[4] = test system: KM-20L2
[5] = test system: LXFL 529
[6] = test system: RXF 631
[7] = test system: SNB-78

Measured: GI50

CCCCN(CCCC)C(=O)C(=O)CC(=O)/C=C/c1ccccc1
inactive: [1] > 100 µM | [2] > 100 µM | [3] > 100 µM | [4] > 100 µM | [5] > 100 µM | [6] > 100 µM | [7] > 100 µM
